Several values for one entry are separate records, joined by “and”; a condition that tells them apart may be missing. Equal entries are not always repeated. No end group written: not given here.
Assays:
[1] = tested on: S. aureus ATCC 33591 (MRSA); experiment: Biofilm formation in peptide-coated PDMS channels under flow; format: cell-based, Staphylococcus aureus; conditions: peptide co-immobilized on pDa-coated PDMS channel, 24 h flow
Protocol: (§1) Formation of the biofilm inside the PDMS flow chambers was performed using three peristaltic pumps working simultaneously (LP-pump, Kamush, Lipopharm, Poland) and sterile Tygon® 3350 silicone hoses (2.4 × 0.8 × 0.8 mm) with a length of 30 and 50 cm for inlet and outlet, respectively. Bacterial suspensions were prepared (0.5 × 10^7 CFU/mL) in sterile 50-mL test tubes, which were placed in a heating block at 37 °C. Before experiments, all channels were assessed for tightness and sterilized using a 70% 2-propanol solution (10 min, flow rate 1 mL/min) and rinsed with sterile PBS solution (10 min, flow 0.1 mL/min). The formation of biofilm inside the channels was divided into three stages: (1) adhesion—at this stage S. aureus suspensions were passed through the channels for 4 h at a flow rate of 0.1 mL/min; (2) rinsing—the previously used hoses were replaced with new sterile ones, and the channels were rinsed with sterile PBS solution for 10 min at a flow rate of 0.1 mL/min; (3) biofilm growth—after flushing the channels, the silicone hoses were placed in tubes with MHB medium, which was passed through the channels for 24 h at a flow rate of 0.1 mL/min. All experiments included growth and sterility controls.
(§2) Incorporation of omiganan and retro-omiganan into PDMS channels was conducted using a polydopamine (pDa) coating, as previously described with a slight modification resulting from flow-based experimental model. To do this, the pDa coating was done by rinsing the channels with a solution of dopamine hydrochloride (Sigma-Aldrich, 2 mg/mL) in 10 mM bicin buffer (pH 8.5) for 18 h, 0.3 mL/min in a closed system (Fig. 3A). Then, the channels were rinsed with a sterile solution of demineralized water. Further co-immobilization was conducted using new, sterile silicone hoses connected to flow chambers and test tubes containing aqueous solutions of the peptides (100 µg/mL) pumped through the channels in a closed system for 6 h at 0.3 mL/min (Fig. 3B). Assessment of peptide binding was performed using liquid chromatography (RP-HPLC), by comparing the content of the compounds in the solution before and after incorporation. Waters Alliance e2695 system with a Waters 2998 PDA Detector (software-Empower 3, Waters, Milford, MA, USA) was used. All analyses were carried out on a Waters X-Bridge Shield RP-18 column (3.0 × 100 mm, 3.5 μm particle size, 130 Å pore size) with UV detection at 214 nm and samples (10 μL) were eluted with a linear 10–90% acetonitrile gradient in deionized water over 15 min at 25.0 ± 0.1 °C. The mobile phase flow rate was 0.5 mL/min. Both eluents contained 0.1% (v/v) of TFA. Each peptide sample was analyzed in triplicate. Such functionalized PDMS channels were used for further studies on biofilm formation. […]

S. aureus ATCC 25923 = experiment: as above; format: cell-based, Staphylococcus aureus; conditions: peptide co-immobilized on pDa-coated PDMS channel, 24 h flow
Protocol: as §1, §2

[2] = tested on: mupirocin-resistant MRSA strains; design: method as in PMID 28581672; conditions: all mupirocin-resistant MRSA strains analyzed; cited from earlier work
[3] = incubation with human skin S9 protease; cited from earlier work

Substance	reduction of bacteria forming biofilm relative to control [1] [%]	reduction of bacteria forming biofilm relative to control (S. aureus ATCC 25923) [%]	MIC [2]	half-life [3]
ILRWPWWPWRRK-NH2 [Omiganan]	98	71	12.5 µM and 22.7 µg/mL	ca. 10 min
KRRWPWWPWRLI-NH2 [Retro-Omiganan]	96	81		

From PMC12055641, “The Study of Antistaphylococcal Potential of Omiganan and Retro-Omiganan Under Flow Conditions” (Probiotics and Antimicrobial Proteins, 2024)
